Reference: paper PMC5728534 (PLoS ONE, 2017)
Numbering of substitutions follows the chain as printed. Entries after “also recorded” stand apart in the source; their conditions may differ.

Columns and labels:
OCT1 = conditions: literature data; cited from earlier work
OCT3 = target: T1, OCT3 (Homo sapiens, UniProt O75751); test: Ranitidine uptake in HEK293 cells overexpressing OCT3; assay type: in vitro ADME
T1 construct: expressed in transfected cells; host or cells: HEK293 (Flp-In)
T1 sequence (O75751 1-556): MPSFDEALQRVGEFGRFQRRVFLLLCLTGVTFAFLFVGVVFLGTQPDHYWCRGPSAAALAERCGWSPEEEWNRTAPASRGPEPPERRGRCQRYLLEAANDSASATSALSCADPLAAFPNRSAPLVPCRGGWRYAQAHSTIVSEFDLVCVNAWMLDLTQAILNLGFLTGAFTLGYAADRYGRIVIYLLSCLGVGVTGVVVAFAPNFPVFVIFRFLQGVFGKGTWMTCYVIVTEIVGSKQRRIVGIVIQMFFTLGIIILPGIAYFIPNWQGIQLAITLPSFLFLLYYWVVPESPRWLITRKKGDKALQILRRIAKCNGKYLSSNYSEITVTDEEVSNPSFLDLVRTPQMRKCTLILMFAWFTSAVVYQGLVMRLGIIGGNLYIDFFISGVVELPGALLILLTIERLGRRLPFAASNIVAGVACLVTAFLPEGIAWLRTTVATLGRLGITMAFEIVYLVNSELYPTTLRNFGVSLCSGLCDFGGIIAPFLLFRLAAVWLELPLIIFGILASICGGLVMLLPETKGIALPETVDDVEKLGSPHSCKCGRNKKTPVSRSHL
Source text: (§1) HEK293 or CHO cells overexpressing the human OCT1 alleles *1A (characterized by the amino acid substitution Met408Val), *1B, *1C (Phe160Leu), *1D (Pro341Leu/Met408Val), *2 (Met420del), *3 (Arg61Cys), *4 (Gly401Ser), *5 (Gly465Arg/Met420del), *6 (Cys88Arg/Met420del), *7 (Ser14Phe), *8A (Arg488Met), *8B (Arg488Met/Met408Val), *9 (Pro117Leu), *10 (Ser189Leu), *11 (Ile449Thr), *12 (Ser29Leu), or *13 (Thr245Met), the human OCT2 reference and variant alleles (Ala270Ser), human OCT3, and the control cells (transfected with the empty pcDNA5 vector) were generated by targeted chromosomal integration using the Flp-In™ System (Life Technologies, Darmstadt, Germany).
(§2) Six hundred thousand HEK293 or CHO cells were plated per well in 12-well plates (pre-coated with poly-D-lysine) and were grown for 48 hours to reach confluence. Cells were kept at 37°C and 5% CO2 in DMEM (HEK293) or RPMI (CHO), supplemented with 10% FCS, 100 U/ml penicillin, and 100 μg/ml streptomycin. Uptake experiments were performed at pH 7.4 using HBSS supplemented with 10 mM HEPES buffer (herein referred to as HBSS+). […]
(§3) For all transport measurements, the intracellular amount of substrate was normalized to the total amount of protein of the sample as measured using the bicinchoninic acid assay [49].
(§4) For quantification of intracellular substrates, the cell debris were removed by centrifugation at 17,000 x g for 10 min. […]

[1] = target: T2, OCT1*6 (Cys88Arg/Met420del) (Homo sapiens, UniProt O15245, C88R/DEL420-420/L160F); test: Ranitidine uptake in HEK293 cells overexpressing OCT1*6; assay type: in vitro ADME; conditions: 1 μM and 10 μM ranitidine, 2 min
T2 construct: expressed in transfected cells; host or cells: HEK293 T-REx (Flp-In)
T2 sequence (O15245 with tags, fused parts or gaps C88R/L160F/DEL420-420): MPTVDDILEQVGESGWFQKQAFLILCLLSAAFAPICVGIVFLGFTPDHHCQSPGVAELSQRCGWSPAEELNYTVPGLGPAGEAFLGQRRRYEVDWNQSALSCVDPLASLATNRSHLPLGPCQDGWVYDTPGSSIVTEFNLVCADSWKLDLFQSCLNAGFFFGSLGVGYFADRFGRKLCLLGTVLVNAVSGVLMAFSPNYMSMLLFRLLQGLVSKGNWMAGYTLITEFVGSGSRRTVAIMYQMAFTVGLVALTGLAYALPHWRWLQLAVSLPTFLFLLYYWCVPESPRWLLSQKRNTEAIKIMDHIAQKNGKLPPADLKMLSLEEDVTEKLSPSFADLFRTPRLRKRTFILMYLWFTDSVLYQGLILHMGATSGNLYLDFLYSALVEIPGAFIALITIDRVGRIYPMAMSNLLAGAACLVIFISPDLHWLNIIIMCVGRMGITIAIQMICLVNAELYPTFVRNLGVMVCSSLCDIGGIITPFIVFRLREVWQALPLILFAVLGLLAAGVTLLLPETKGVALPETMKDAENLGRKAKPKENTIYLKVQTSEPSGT
Source text: as §1, §2, §3, §4

OCT2 = target: T3, OCT2 (Homo sapiens, UniProt O15244, S270A); test: Ranitidine uptake in HEK293 cells overexpressing OCT2 reference (Ala270); assay type: in vitro ADME; conditions: 1 μM ranitidine, 2 min
T3 construct: expressed in transfected cells; host or cells: HEK293 T-REx (Flp-In)
T3 sequence (O15244 1-555 S270A): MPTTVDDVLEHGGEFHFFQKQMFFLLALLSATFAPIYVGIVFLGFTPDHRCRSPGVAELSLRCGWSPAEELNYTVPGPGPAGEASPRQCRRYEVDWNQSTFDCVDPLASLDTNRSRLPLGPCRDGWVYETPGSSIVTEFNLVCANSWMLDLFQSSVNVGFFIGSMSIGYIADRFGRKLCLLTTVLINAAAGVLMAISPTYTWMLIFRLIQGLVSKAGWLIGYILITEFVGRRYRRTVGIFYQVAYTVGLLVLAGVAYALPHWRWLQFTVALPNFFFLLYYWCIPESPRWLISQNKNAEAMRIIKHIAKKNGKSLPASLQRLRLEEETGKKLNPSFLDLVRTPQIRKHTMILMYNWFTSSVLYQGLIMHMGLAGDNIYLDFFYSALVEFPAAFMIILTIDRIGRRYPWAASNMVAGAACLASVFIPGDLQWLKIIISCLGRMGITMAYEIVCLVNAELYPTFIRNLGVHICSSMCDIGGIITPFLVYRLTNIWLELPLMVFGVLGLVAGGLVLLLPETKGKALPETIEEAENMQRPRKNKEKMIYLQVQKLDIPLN
Source text: as §1, §2, §3, §4

OCT1*2 (Met420del) = target: T4, OCT1*2 (Met420del) (Homo sapiens, UniProt O15245, DEL420-420/L160F)
T4 sequence (O15245 with tags, fused parts or gaps L160F/DEL420-420): T2 sequence (O15245 with tags, fused parts or gaps C88R/L160F/DEL420-420) with R88C
Source text: as §1, §2, §3, §4

[2] = parameters: method as in ref 5 = [5]; 5 Inc. G. PrZANTAC ® [product monograph]. Canada: GlaxoSmithKline Inc.; 2015 [updated 15.01.2015; cited 2016 21.10.2016].; conditions: long-term toxicity tests in animals; cited from earlier work

SMILES: CNC(=C[N+](=O)[O-])NCCSCc1ccc(CN(C)C)o1 [ranitidine, Ranitidine]
- Km (OCT1): 70 ± 9 µM
- increase in ranitidine uptake, OCT3-overexpressing cells compared to the controls (OCT3; HEK293, 10-600 μM ranitidine, 2 min): up to 2 fold
- OCT3-mediated uptake lower than the OCT1-mediated uptake of ranitidine (OCT3; at clinically relevant concentrations): more than 14 fold
- ranitidine transport activity [1]: completely lacked ranitidine uptake; also recorded: complete lack of ranitidine transport activity
- ranitidine uptake, OCT2-overexpressing compared to control cells (OCT2): 3.3 fold
- decrease of vmax compared to the reference allele (OCT1*2 (Met420del); OCT1*2): more than 50%
- Vmax (±SEM) (OCT1*2 (Met420del); OCT1*2 Met420del, HEK293, 10-600 μM ranitidine, 2 min): 402.04 (±51.24) pmol x min^-1 x mg protein^-1
- plasma concentrations exceeding the human maximal plasma concentration without significant adverse reactions [2]: 50 fold
